Measured values reported in ChEMBL document CHEMBL5046253, “Synthesis and bioevaluation of diaryl urea derivatives as potential antitumor agents for the treatment of human colorectal cancer” (Eur J Med Chem, 2022).

Assays:
[1] = tested on: HCT-116; experiment: Induction of apoptosis in human HCT-116 cells assessed as necrotic cells at 2.5 uM incubated for 24 hrs by annexin V FITC/propidium iodide staining based flow cytometry (reference value: 0.9 %); format: functional
[2] = biological target: Phosphatidylinositol 4,5-bisphosphate 3-kinase catalytic subunit alpha isoform (Homo sapiens, UniProt P42336); experiment: Inhibition of PI3Kalpha (unknown origin) using PIP2 as substrate in presence of ATP incubated for 60 mins by ADP-glo based luminescence assay
Phosphatidylinositol 4,5-bisphosphate 3-kinase catalytic subunit alpha isoform, sequence (P42336 whole entry, canonical isoform): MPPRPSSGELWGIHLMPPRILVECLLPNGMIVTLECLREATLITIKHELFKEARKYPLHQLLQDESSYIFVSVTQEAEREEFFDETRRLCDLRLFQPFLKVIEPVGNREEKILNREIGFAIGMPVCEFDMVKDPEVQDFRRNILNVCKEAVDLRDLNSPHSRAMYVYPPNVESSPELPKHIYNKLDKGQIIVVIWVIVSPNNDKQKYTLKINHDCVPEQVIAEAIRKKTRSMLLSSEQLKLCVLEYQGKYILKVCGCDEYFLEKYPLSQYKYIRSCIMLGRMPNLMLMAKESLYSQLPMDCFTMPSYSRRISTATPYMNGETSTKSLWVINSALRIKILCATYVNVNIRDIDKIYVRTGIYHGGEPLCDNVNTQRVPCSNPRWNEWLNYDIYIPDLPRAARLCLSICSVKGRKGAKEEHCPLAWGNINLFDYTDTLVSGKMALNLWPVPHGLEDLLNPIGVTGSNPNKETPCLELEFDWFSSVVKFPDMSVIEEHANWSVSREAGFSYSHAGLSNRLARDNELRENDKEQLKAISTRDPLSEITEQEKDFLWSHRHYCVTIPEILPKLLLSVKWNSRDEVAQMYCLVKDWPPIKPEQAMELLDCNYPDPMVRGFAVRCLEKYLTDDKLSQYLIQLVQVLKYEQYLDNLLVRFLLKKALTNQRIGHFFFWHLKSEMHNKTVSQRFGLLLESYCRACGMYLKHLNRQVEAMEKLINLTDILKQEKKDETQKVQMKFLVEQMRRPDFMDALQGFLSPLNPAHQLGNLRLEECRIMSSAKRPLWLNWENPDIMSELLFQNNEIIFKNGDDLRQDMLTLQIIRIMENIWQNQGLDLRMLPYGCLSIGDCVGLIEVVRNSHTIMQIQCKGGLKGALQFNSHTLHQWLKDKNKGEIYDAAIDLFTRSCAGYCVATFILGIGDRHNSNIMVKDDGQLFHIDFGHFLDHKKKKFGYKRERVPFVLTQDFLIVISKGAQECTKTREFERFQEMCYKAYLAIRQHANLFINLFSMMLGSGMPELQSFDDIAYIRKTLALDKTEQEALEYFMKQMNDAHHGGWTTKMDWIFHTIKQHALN

[3] = tested on: HCT-116; experiment: Induction of apoptosis in human HCT-116 cells assessed as late apoptotic cells at 10 uM incubated for 24 hrs by annexin V FITC/propidium iodide staining based flow cytometry (reference value: 6.8 %); format: functional
[4] = tested on: Liver; experiment: Toxicity in BALB/c mouse assessed as effect on liver by H and E staining based histological analysis; format: tissue-based; settings: in vivo
[5] = biological target: Cytochrome P450 1A2 (Homo sapiens, UniProt P05177); experiment: Inhibition of CYP1A2 (unknown origin); format: ADME
Cytochrome P450 1A2, sequence (P05177 whole entry): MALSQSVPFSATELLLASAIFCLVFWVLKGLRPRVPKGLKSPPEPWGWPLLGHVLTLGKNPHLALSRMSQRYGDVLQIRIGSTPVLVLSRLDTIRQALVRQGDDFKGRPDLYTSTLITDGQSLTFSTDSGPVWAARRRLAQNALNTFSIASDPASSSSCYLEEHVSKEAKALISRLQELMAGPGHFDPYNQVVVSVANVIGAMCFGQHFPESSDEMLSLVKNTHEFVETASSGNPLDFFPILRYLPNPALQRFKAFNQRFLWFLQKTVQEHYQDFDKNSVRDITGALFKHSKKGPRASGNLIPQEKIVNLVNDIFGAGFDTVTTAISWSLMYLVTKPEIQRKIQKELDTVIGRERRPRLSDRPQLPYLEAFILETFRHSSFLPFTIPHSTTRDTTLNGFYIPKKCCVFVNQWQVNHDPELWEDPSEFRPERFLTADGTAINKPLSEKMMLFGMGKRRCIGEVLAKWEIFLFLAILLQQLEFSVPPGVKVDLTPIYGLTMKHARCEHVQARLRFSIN

[6] = tested on: HCT-116; experiment: Antiproliferative activity against human HCT-116 cells assessed as reduction in cell viability incubated for 48 hrs by MTT assay; format: functional, cell-based; settings: HCT-116, 48 h
[7] = tested on: HCT-116; experiment: Induction of apoptosis in human HCT-116 cells assessed as viable cells at 10 uM incubated for 24 hrs by annexin V FITC/propidium iodide staining based flow cytometry (reference value: 81.2 %); format: functional; settings: read-out: Activity
[8] = tested on: HCT-116; experiment: Induction of apoptosis in human HCT-116 cells assessed as necrotic cells at 5 uM incubated for 24 hrs by annexin V FITC/propidium iodide staining based flow cytometry (reference value: 0.9 %); format: functional
[9] = Half life in Sprague-Dawley rat at 20 mg/kg, iv by LC-MS/MS analysis; format: ADME, organism-based; settings: in vivo
[10] = tested on: HCT-116; experiment: Induction of apoptosis in human HCT-116 cells assessed as necrotic cells at 10 uM incubated for 24 hrs by annexin V FITC/propidium iodide staining based flow cytometry (reference value: 0.9 %); format: functional
[11] = tested on: BaF3; experiment: Antiproliferative activity against mouse BaF3 cells harboring EGFR L858R/T790M/C797S mutant assessed as reduction in cell viability incubated for 72 hrs by celltiter-glo assay; format: toxicity, cell-based; settings: BaF3, 72 h
[12] = tested on: HCT-116; experiment: Induction of apoptosis in human HCT-116 cells assessed as early apoptotic cells at 5 uM incubated for 24 hrs by annexin V FITC/propidium iodide staining based flow cytometry (reference value: 11.1 %); format: functional
[13] = Stability in Sprague-Dawley rat plasma; format: ADME, cell-free
[14] = biological target: T1, Phosphatidylinositol 4,5-bisphosphate 3-kinase catalytic subunit delta isoform (Homo sapiens, UniProt O00329); experiment: Inhibition of PI3Kdelta (unknown origin) using PIP2 as substrate in presence of ATP incubated for 60 mins by ADP-glo based luminescence assay
T1 sequence (O00329 whole entry): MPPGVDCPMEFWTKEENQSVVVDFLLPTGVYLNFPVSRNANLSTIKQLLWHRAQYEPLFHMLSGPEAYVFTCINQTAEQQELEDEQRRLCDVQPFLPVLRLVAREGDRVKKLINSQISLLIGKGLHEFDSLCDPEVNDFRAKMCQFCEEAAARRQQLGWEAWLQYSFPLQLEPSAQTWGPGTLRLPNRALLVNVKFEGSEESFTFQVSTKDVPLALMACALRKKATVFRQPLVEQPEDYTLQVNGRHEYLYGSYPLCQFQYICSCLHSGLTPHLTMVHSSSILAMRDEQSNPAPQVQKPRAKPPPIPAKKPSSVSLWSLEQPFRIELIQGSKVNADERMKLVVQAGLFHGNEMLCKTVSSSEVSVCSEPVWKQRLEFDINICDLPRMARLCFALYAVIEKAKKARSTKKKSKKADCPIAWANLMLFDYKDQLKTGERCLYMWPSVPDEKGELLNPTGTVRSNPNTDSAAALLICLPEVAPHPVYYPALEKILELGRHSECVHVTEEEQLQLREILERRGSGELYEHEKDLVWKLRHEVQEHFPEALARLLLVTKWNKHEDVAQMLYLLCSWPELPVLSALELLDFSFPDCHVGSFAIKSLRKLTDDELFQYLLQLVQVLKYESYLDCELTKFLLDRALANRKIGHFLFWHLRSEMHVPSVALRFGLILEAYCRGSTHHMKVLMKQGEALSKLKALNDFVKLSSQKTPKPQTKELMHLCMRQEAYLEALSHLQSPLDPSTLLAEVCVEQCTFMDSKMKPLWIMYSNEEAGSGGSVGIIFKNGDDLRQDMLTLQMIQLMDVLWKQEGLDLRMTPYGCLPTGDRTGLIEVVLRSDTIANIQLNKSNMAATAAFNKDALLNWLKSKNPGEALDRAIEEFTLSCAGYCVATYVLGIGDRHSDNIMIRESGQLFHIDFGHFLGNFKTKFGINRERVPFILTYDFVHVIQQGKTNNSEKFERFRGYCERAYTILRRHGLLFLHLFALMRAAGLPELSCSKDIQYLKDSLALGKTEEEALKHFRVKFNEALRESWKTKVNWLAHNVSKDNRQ

[15] = biological target: Cytochrome P450 2C9 (Homo sapiens, UniProt P11712); experiment: Inhibition of CYP2C9 (unknown origin); format: ADME
Cytochrome P450 2C9, sequence (P11712 whole entry): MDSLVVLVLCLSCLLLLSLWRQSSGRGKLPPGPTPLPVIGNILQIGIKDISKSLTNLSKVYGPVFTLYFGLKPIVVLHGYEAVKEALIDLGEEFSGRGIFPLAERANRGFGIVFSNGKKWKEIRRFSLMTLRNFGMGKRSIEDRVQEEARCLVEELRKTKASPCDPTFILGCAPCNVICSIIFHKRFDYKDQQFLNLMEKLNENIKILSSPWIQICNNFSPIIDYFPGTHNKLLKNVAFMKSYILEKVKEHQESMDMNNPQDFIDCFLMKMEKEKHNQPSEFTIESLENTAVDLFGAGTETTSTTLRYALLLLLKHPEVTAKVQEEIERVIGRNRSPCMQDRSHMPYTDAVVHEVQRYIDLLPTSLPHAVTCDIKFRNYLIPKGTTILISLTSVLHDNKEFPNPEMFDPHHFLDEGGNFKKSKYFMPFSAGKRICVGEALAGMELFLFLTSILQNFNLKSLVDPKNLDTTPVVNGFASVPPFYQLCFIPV

[16] = MRT in Sprague-Dawley rat at 20 mg/kg, iv by LC-MS/MS analysis; format: ADME, organism-based; settings: in vivo
[17] = tested on: L02; experiment: Antiproliferative activity against human L02 cells assessed as reduction in cell viability incubated for 48 hrs by MTT assay; format: cell-based; settings: L02, 48 h

IC50 [2]: 0.7 nM | IC50 [5]: > 50000 nM | IC50 [6]: 110 nM | half-life [9]: 19 h | Stability [13]: Stable | IC50 [14]: 27.4 nM | IC50 [15]: > 50000 nM | MRT [16]: 10.4 h
SMILES: NC(=O)[C@@H]1CCCN1C(=O)c1ccc(NC(=O)Nc2ccc(-c3nc(N4CCOCC4)nc(N4CCOCC4)n3)cc2)cc1
Activity [1]: 2.2% | Activity [3]: 10.3% | Activity [4]: Non-Toxic | viability at 10 µM [7]: 63.1% | Activity [8]: 1.79% | Activity [10]: 1.7% | IC50 [11]: 217 nM | Activity [12]: 13.3% | IC50 [17]: > 100000 nM
